From US11660301B2, “Combination of ATR kinase inhibitors with PARP inhibitors” (Bayer Pharma Aktiengesellschaft, priority 2017, dated 2023)
Marks after values point to notes of the source that are not given here.

Key:
MDA-MB-436 = assay: In vitro anti-proliferation (Cell Titre-Glo), MDA-MB-436; type: cell-based; details: Homo sapiens; MDA-MB-436, breast; 96 hours of incubation; mono-treatment
Procedure: (§1) Tumor cells (Table 1) were propagated in a humidified 37° C. incubator in their respective growth medium supplemented 10% fetal calf serum. […] Test compounds were added to the wells using a Tecan-HP Digital Dispenser. After 96 hours of incubation cell viability was assessed with the Cell Titre-Glo Luminescent Cell Viability Assay (Promega).

HT-144 = assay: In vitro anti-proliferation (Cell Titre-Glo), HT-144; type: cell-based; details: Homo sapiens; HT-144, melanoma; 96 hours of incubation; mono-treatment
Procedure: as §1

NCI-H460 = assay: In vitro anti-proliferation (Cell Titre-Glo), NCI-H460; type: cell-based; details: Homo sapiens; NCI-H460, lung; 96 hours of incubation; mono-treatment
Procedure: as §1

IGR-OV-1 = assay: In vitro anti-proliferation (Cell Titre-Glo), IGR-OV-1; type: cell-based; details: Homo sapiens, IGROV-1; IGR-OV-1, ovary; 96 hours of incubation; mono-treatment
Procedure: as §1

[1] = tested on: human MDA-MB-436 breast cancer xenograft; assay: MDA-MB-436 breast cancer xenograft model; type: in vivo, mice
Procedure: (§2) The oral and intraperitoneal application volume was 10 ml/kg. The time interval between two applications per day was 6-7 h. […] Changes in the body weight were a measure of treatment-related toxicity (>10%=critical, stop of treatment until recovery, >20%=toxic, termination). The tumor area was detected by means of an electronic caliper gauge [length (mm)×width (mm)]. In vivo anti-tumor efficacy is presented as T/C ratio (Treatment/Control) calculated with tumor areas at study end by the formula [(tumor area of treatment group at day x)−(tumor area of treatment group at day before first treatment)]/[(tumor area control group at day x)−(tumor area of control group at day before first treatment)]. […] Statistical analysis was assessed using SigmaStat software. A one-way analysis of variance was performed and differences to the control were compared by a pair-wise comparison procedure (Dunn's method).

[2] = tested on: human 22Rv1 prostate cancer xenograft; assay: 22Rv1 prostate cancer xenograft model; type: in vivo, mice
Procedure: as §2

IC50 (MDA-MB-436): 6.5 µM | IC50 (HT-144): 23 µM | IC50 (NCI-H460): 28 µM
SMILES: O=C(c1cc(Cc2n[nH]c(=O)c3ccccc23)ccc1F)N1CCN(C(=O)C2CC2)CC1 [Compound B, Olaparib]
IC50 (IGR-OV-1): 22 µM | anti-tumor efficacy ([1]; MDA-MB-436 human breast cancer model, result in words): good anti-tumor efficacy | Max. weight loss (%) ([1]; body weight vs start of treatment, Compound A 20 mg/kg 2QD p.o. 3 on/4 off, Compound B 50 mg/kg QD i.p.): −3% | T/C ([1]; tumor area at study end, NOD/Scid mice, Compound A 20 mg/kg 2QD p.o. 3 on/4 off, Compound B 50 mg/kg QD i.p.): 0.29^* | anti-tumor efficacy ([2]; 22Rv1 prostate cancer model, result in words): no anti-tumor efficacy | Max. weight loss (%) ([2]; body weight vs start of treatment, Compound A 20 mg/kg 2QD p.o. 3 on/4 off, Compound B 20 mg/kg QD i.p.): −3% | T/C ([2]; tumor area at study end, male Fox Chase SCID mice, Compound A 20 mg/kg 2QD p.o. 3 on/4 off, Compound B 20 mg/kg QD i.p.): 1.18
